Data reported in US8697652B2, “Cosmetic use of at least the natural tetrapeptide Ac-Ser-Asp-Lys-Pro or one of its analogs as a skin restructuring agent” (Centre National de la Recherche Scientifique (CNRS), priority 2004, dated 2014).
Ends that are not written are not given here.

Assays:
Type in all cases: cell-based
human skin explants = assay: General morphology (Masson Trichrome) of human skin explants treated topically with AcSDKP
Protocol: (§1) This study was conducted on thirty six human skin explants obtained from breast plastic surgery.
(§2) All the explants were maintained in a state of survival in a culture medium for eight days. AcSDKP at a concentration of 10^−5 M or 10^−8 M in physiological serum was applied to the explants by topical route every day for one week. On days 2, 4, 6 and 8, three explants from each batch (control, +AcSDKP 10^−5 M+ AcSDKP 10^−8 M) were removed and prepared for histological studies. General morphology was examined and an evaluation of the expression of basal keratin (CK14), undifferentiated keratin (CK19), collagen III, collagen IV, fibronectin and glycosaminoglycan without an acid group was performed.
This is seen by an increased number of live cell bases.

Keratin 14 (CK14) = assay: Immunolabelling of keratin 14 in human skin explants
Protocol: as §1, §2

Keratin 19 (CK19) = assay: Immunolabelling of keratin 19 in human skin explants
Protocol: as §1, §2

[1] = test system: Dermal Collagen (Type III); assay: Immunolabelling of collagen III in human skin explants
Protocol: as §1, §2

[2] = test system: Basal Membrane Collagen (Type IV); assay: Immunolabelling of collagen IV in human skin explants
Protocol: as §1, §2

fibronectin = assay: Immunolabelling of fibronectin in human skin explants
Protocol: as §1, §2

Glycosaminoglycan (GAGs) = assay: P.A.S. Alcian blue staining of GAGs without acid groups in human skin explants
Protocol: as §1, §2
This effect, clearly visible at D6 and D8, is characterised by a PAS positive increase in the number of fibroblasts in the papillary dermis, especially in the band situated along the dermo-epidermal junction and by increased levels of GAGs in these fibroblasts.

[3] = AcSDKP 10^-5 M compared with 10^-8 M

With “Acetyl-Ser-Asp-Lys-Pro (Ac-SDKP) [AcSDKP, natural tetrapeptide isolated from calf foetus bone marrow or obtained by peptide synthesis]” the “increase in epidermal thickness” value (human skin explants; [3]) was “greater”, the “epidermal structure (general morphology)” value (human skin explants; AcSDKP 10^-5 M or 10^-8 M, topical daily, as of D6 of treatment) was “stimulation of the epidermal structure” and the “overall effect on epidermis and dermis (conclusion)” value (human skin explants; conclusion of explant study) was “restructuring of the epidermis and dermis”. The CK14 restructuring effect (Keratin 14 (CK14); [3]) was “greater”, the “CK14 levels (immunolabelling)” value (Keratin 14 (CK14); basal and superbasal position, as of D4 of treatment) was “gradual increase in the levels of this protein” and the “production of CK14 in treated skin (summary)” value (Keratin 14 (CK14); summary statement) was “stimulates the production”. The CK19 effect (Keratin 19 (CK19); [3]) was “less marked effect”, the “CK19 expression (immunolabelling)” value (Keratin 19 (CK19); AcSDKP 10^-5 M or 10^-8 M, as of D6 of treatment) was “overexpression of the skin's dermal attachments” and the “production of CK19 in treated skin (summary)” value (Keratin 19 (CK19); summary statement) was “stimulates the production”. The “collagen III expression” value ([1]; AcSDKP 10^-5 M, D8) was “very clear overexpression of collagen III in the papillary and reticular dermis”, the “collagen III levels” value ([1]; AcSDKP 10^-5 M, six days of treatment) was “very marked increase in collagen III levels in the papillary dermis along the dermo-epidermal junction” and the “collagen III in the remainder of the papillary dermis and reticular dermis” value ([1]; AcSDKP 10^-8 M, D6) was “more present”. The “collagen III expression along the dermo-epidermal junction” value ([1]; AcSDKP 10^-8 M, D6, compared with 10^-5 M) was “less pronounced”, the “level of collagen III” value ([1]; AcSDKP 10^-8 M, D8) was “increases along the dermo-epidermal junction and forms a thicker collagen band” and the “expression of collagen III in treated skin (summary)” value ([1]; summary statement) was “stimulatory effect”. For the same substance, the “increase in collagen IV levels” value [2, 3] was “higher”, the “increase in collagen IV levels in the basal membrane along the dermo-epidermal junction” value ([2]; AcSDKP 10^-5 M or 10^-8 M, D6 and D8, compared with type III collagen) was “less pronounced than that for type III collagen” and the “expression of collagen IV in treated skin (summary)” value ([2]; summary statement) was “stimulatory effect”. The fibronectin activity (fibronectin; [3]) was “greater activity”, the fibronectin network (fibronectin; area treated with AcSDKP) was “denser and has thicker fibres” and the “fibronectin expression (immunolabelling, summary)” value (fibronectin; treated skin) was “overexpression of this protein along a dermo-epidermal junction as well as in the papillary and reticular dermis”. The GAG activity (Glycosaminoglycan (GAGs); [3]) was “higher level of activity” and the “levels of GAGs without acid groups” value (Glycosaminoglycan (GAGs); AcSDKP 10^-5 M or 10^-8 M, clearly visible at D6 and D8) was “significant increase in the levels of these compounds”.
